From patent US5242942A, “Anticonvulsant fructopyranose cyclic sulfites and sulfates” (McNeilab, Inc., priority 1992, dated 1993) come the findings set out here.

Assay [1] has as its system Total Acid Output. Put plainly: pylorus-ligated rat test, gastric antisecretory activity. The class given is in vivo, rat (male Charles River Sprague-Dawley derived). Particulars: PO, read-out: ED50, inhibition of Total Acid Output. As to the method:
The gastric antisecretory activity of the compounds shown in Table II was determined by the pylorus-ligated rat test described by Shay et al. in Gastroenterol. 1954, 26, 906. In this method, male Charles River Sprague-Dawley derived rats weighing 150-300 grams were deprived of food but not water for 18-24 hours prior to use. Water was withheld during the experiment, however. The rats were weighed, lightly anesthetized with ether and the pylorus ligated according to the method of Shay et al., supra. The treatment or vehicle control was then administered intraperitoneally (IP) or orally (PO). When administered by the IP route, the administration was done 30 minutes before ligation. When administered by the PO route, the administration was done prior to ligation (about 1/2 to 3 hours before). Rats were housed two per cage and sacrificed with carbon dioxide 3 hours after ligation. Their stomachs were removed, rinsed, and contents emptied into a graduated centrifuge tube. The tubes were centrifuged, the volume of gastric juice was recorded, and any samples obviously contaminated by feces, food or blood were eliminated. A 1 mL aliquot of gastric juice was titrated with 0.1N NaOH to a pH of 7.0-7.4. The volume of gastric juice secreted, the acid concentration, and the product of the volume times the concentration, i.e. the total amount of acid secreted, were measured. The total acid output was calculated by multiplying the volume of gastric juices collected times the hydrogen ion concentration (amount of NaOH added to a sample to reach a pH of 7.0-7.4) and dividing that value by 10. The mean value of the total acid output for a control group of rats was then subtracted from the mean value of the total acid output for the group of rats tested at the same dose. That value was then divided by the mean value of total acid output for the control group and the resulting number was multiplied by 100 to provide a Percent Inhibition value, which values are reported in Table II. The […] was determined statistically as the dose at which a 50% inhibition would be realized.

The subject of assay [2] is tonic extensor seizure. Put plainly: maximal electroshock test (MES). Particulars: mouse, PO, at 4 hr. The class given is in vivo, mouse (albino male CRS-CD1). As to the method: The compounds of formula (I) are particularly useful as anticonvulsant agents in mammals including humans. The anticonvulsant activity of the subject compounds was determined using a standard "maximal electroshock test" (MES). In this test, activity is indicated by a block of the […] extensor seizure caused by application of an electric shock to mice via corneal electrodes, as described by Swinyard et al. in J. Pharmacol. Expt. Ther. 1952, 106, 319, and recorded as % block. A more recent description of current anticonvulsant drug screening is given by Swinyard in Epilepsia 1978, 19, 409. The anticonvulsant activity of the compounds of this invention tested according to the Swinyard 1952 method is shown in the following Table I.
In the test, albino male CRS-CD1 mice weighing between 18-25 g were used in all experiments (obtained from Charles River). They were allowed food and water ad libitum and were used only once. The electroshock apparatus and the corneal electrodes were purchased from Wahlquist Instrument Company, Salt Lake City, Utah.
Maximal electroshock seizures were induced by the delivery of a 60 Hertz (Hz) current of 50 milliamps (mA) intensity to the mouse through corneal electrodes for 0.2 seconds as originally described by Swinyard et al. (1952). This stimulus intensity is approximately 4 to 6 times the current producing 100% tonic extensor convulsions. During the validation of the MES test, the duration of the various seizure components following maximal electroshock were measured as follows: hindleg tonic flexion was measured from the time of the application of the stimulus to the time of onset of hindleg tonic extension (i.e. when the hindlegs deviate by greater than an angle of 90° from the torso), hindleg tonic extensor was measured from the time of extensor thrust to the onset of generalized clonus, and terminal clonus was measured from the beginning to the end of bilateral rhythmic clonic jerking. Mortality was also recorded. The duration of each seizure component agreed well with the values previously reported by Tedeschi et al. in J. Pharmacol. Expt. Ther. 1955, 116, 107. The corneal electrodes were concave so that saline could be applied to the electrodes to reduce mortality. If this procedure is followed, mortality should always be less than 40% in control mice. Thus, at an electroshock stimulus of 60 Hz, 50 mA and 0.2 seconds duration, the order of convulsive components and the percentage of control animals displaying the behaviors should be as follows: tonic flexion (100%), tonic extension (100%) and clonus (100%) with less than 40% mortality.
For testing compounds, the abolition of the tonic extensor component was the endpoint. Animals were dosed orally (PO) with either vehicle or test drug and at a specified time were given a maximal electric shock through corneal electrodes blotted with saline (as described above). A minimum of 10 animals were used per group and the percentage of animals in the group without tonic hindlimb extension recorded. Determination of ED50 values (that dose of drug inhibiting 50% of the tonic extensor seizures) is shown below in Table I.
(In general: The maximal electroshock test induces tonic seizures with an electrical stimulus.)

For `CC1(C)O[C@H]2[C@@H]3OS(=O)(=O)O[C@@H]3CO[C@@]2(COS(N)(=O)=O)O1` [Example 1, 2,3-O-(1-Methylethylidene)-4,5-O-sulfonyl-β-D-fructopyranose Sulfamate], the ED50 – broadly, the dose at which the effect has come halfway, by size or by number of responders – in assay [1] amounted to 20 mg/kg; in assay [2], 6.3 mg/kg.
